Laboratory results as given in patent US6552214B1, “Antimicrobial compound” (General Electric Company, priority 2000, dated 2003).

How the values were obtained:
E. coli = assay: Kirby-Bauer type assay, zone of inhibition; type: cell-based; settings: 24 h incubation
Description: (§1) Antimicrobial activity of the modified IRGASAN® bacteriostat was compared to that of the unmodified material in a Kirby-Bauer type assay. Three solutions of IRGASAN® bacteriostat and three solutions of modified IRGASAN® bacteriostat (3, 30 and 3000 ppm) were prepared and soaked into Whatman filter paper disks ˜6 mm in diameter and allowed to dry. The disks were placed onto the surface of nutrient agar plates that had been inoculated with 1×10^6 cells of either E. coli or Pseudomonas aeruginosa. The ability of the compounds to inhibit bacterial growth was determined by measuring the diameter of the zone of inhibition surrounding the filter paper disks after 24 h of incubation. The results (TABLE 1) indicate that there is no difference in activity between the modified and unmodified IRGASAN® bacteriostat compound.

Pseudomonas aeruginosa = assay: Kirby-Bauer type assay, zone of inhibition; type: cell-based; settings: P. aeruginosa, 24 h incubation
Description: as §1

[1] = Dioxin (2,8 DCDD) formation during GC-MS analysis; type: physicochemical; settings: injection of a 1000 ppm solution at 270° C. (518° F.)
Description: Dioxin formation was compared between modified and unmodified IRGASAN® bacteriostat samples. It was determined that 2,8 DCDD was produced during analysis of unmodified IRGASAN® bacteriostat by gas-chromatography-mass spectroscopy (GC-MS), presumably during injection of the material at 270° C. (518° F.).
The structure of IRGASAN® bacteriostat was modified by derivatization with BSTFA. A 0.1 ml volume of BSTFA (Supelco inc.) was added to 1.0 ml of a 1000 ppm IRGASAN® solution. Dioxin levels were undetectable upon analysis of the modified IRGASAN® solution by GC-MS.

[2] = background statement; cited from earlier work
[3] = 3 ppm solution soaked into filter paper disk
[4] = 30 ppm solution soaked into filter paper disk
[5] = 3000 ppm solution soaked into filter paper disk

SMILES | zone of inhibition at 3 ppm (E. coli; Escherichia coli, 3 ppm solution soaked into filter paper disk) [mm] | zone of inhibition at 30 ppm (E. coli; Escherichia coli, 30 ppm solution soaked into filter paper disk) [mm] | zone of inhibition at 3000 ppm (E. coli; Escherichia coli, 3000 ppm solution soaked into filter paper disk) [mm] | zone of inhibition at 3 ppm (Pseudomonas aeruginosa; Pseudomonas aeruginosa, 3 ppm solution soaked into filter paper disk) [mm] | zone of inhibition at 30 ppm (Pseudomonas aeruginosa; Pseudomonas aeruginosa, 30 ppm solution soaked into filter paper disk) [mm] | zone of inhibition at 3000 ppm (Pseudomonas aeruginosa; Pseudomonas aeruginosa, 3000 ppm solution soaked into filter paper disk) [mm] | production of DCDD (dioxin level) [1] | Zone of Inhibition (E. coli; [3]) [mm] | Zone of Inhibition (E. coli; [4]) [mm] | Zone of Inhibition (E. coli; [5]) [mm] | Zone of Inhibition (Pseudomonas aeruginosa; [3]) [mm] | Zone of Inhibition (Pseudomonas aeruginosa; [4]) [mm] | Zone of Inhibition (Pseudomonas aeruginosa; [5]) [mm] | temperature above which the ether converts to chlorinated dioxin (DCDD) [2]
C[Si](C)(C)Oc1cc(Cl)ccc1Oc1ccc(Cl)cc1Cl [Modified, 2,4,4′-trichloro-2′-trimethylsilyloxy diphenyl ether] | 1 | 4 | 12 | 0 | 0 | 0 | undetectable |  |  |  |  |  |  | 
Oc1cc(Cl)ccc1Oc1ccc(Cl)cc1Cl [Unmodified, 2,4,4′-dichloro-2′-hydroxydiphenyl ether] |  |  |  |  |  |  | approximately 46 ppm | 1 | 4 | 12 | 0 | 0 | 0 | above 200 °C
